Experimental data reported in US10851115B2, “Heterocyclic compounds as RSV inhibitors” (Enanta Pharmaceuticals, Inc., priority 2017, dated 2020).
pEC50: −log10 of the molar value.

tested on: Human RSV-A (“Long” strain); assay: RSV in vitro cytoprotection assay in HEp-2 cells (ATPlite readout); format: cell-based; settings: human respiratory syncytial virus, 96 h; HEp-2 cells, 4-day incubation, ATPlite; read-out: Human RSV-A (“Long” strain) EC50
Source text: RSV is a single stranded negative sense RNA virus that causes respiratory tract infections which can be dangerous to infants, the elderly, and immunosuppressed individuals. Currently there is no vaccine, and therapeutic options are both costly and of limited effectiveness. These approved treatments are Ribavirin, and Palivizumab/Synagis (a monoclonal antibody). RSV has two genotypes, A and B, which differ primarily in the structure of the virus' surface “G” attachment protein. Our current primary screen focusses on RSV-A and uses an in vitro cytoprotection assay where compounds are added in 2-fold dilutions to cells which are then subjected to fully replicative viral particles. Cell viability is measured several days later along with separate measurements of compound cytotoxicity. This report focuses on the results of our most recent screening of compounds.
HEp-2 cells, (originally derived from tumors grown in irradiated-cortisonised weanling rats that had been injected with epidermoid carcinoma tissue from a person's larynx, but later found to be indistinguishable from HeLa cells by PCR DNA analysis), were used for the culturing of genotype A, “Long” strain RSV. Flasks were inoculated with RSV and viral stocks were collected once cytopathic effect (CPE) was greater than 90%. Viral stocks in 25% sucrose media were snap frozen using liquid nitrogen to increase viral stability. Viral stock titers were quantified by tissue culture infectious dose 50% (TCID50) using 8,000 cells per well and 3-fold viral dilutions across a 96-well plate, cultured for 4 days.
Following extensive parameter testing, the final assay is run as follows: HEp-2 cells are seeded into the inner 60 wells of a 96-well plate at 8,000 cells per well in a volume of 50 μL using Growth Media (DMEM without phenol red, 1% L-Glut, 1% Penn/Strep, 1% nonessential amino acids, 10% FBS). 2-Fold serial dilutions of control and test compounds are added to the wells in duplicate in a total volume of 25 μL. Viral stock is then added to the wells in a volume of 25 μL, bringing the total volume of each well to 100 μL. Each 96-well plate has a control column of 6 wells with cells and virus but no compound (negative control, max CPE), a column with cells but no compound or virus (positive control, minimum CPE), and a column with no cells or virus or compound (background plate/reagent control). The control wells with cells but no virus are given an additional 25 uL of growth media containing an equal quantity of sucrose as those wells receiving the viral stock in order to keep consistent in media and volume conditions. The outer wells of the plate are filled with 125 μL of growth media to act as a thermal and evaporative moat around the test wells. Following a 4-day incubation period, the plates are read using ATPlite (50 uL added per well), which quantifies the amount of ATP (a measure of cell health) present in each well. Assay plates are read using the Envision luminometer. In parallel, cytotoxicity is examined on an additional 96-well plate treated in an identical manner, but substituting the 25 μL of viral stock for 25 μL of growth media. […] EC50 ranges are as follows: A<0.01 μM; B 0.01-0.05 μM; C>0.05 μM.

pEC50	SMILES
> 8.00	Cc1cnc(N2CC3(CCOCC3)C2)c(C(=O)Nc2ccc(C(=O)N3CCc4c(sc(C(=O)Nc5c(C)cccc5F)c4F)-c4ncccc43)cc2)c1 [Example 73]
> 8.00	Cc1cnc(N2CC3(CCOCC3)C2)c(C(=O)Nc2ccc(C(=O)N3CCc4c(sc(C(=O)Nc5ncccc5F)c4F)-c4ncccc43)cc2)c1 [Example 72]
> 8.00	Cc1ccc(C(=O)Nc2ccc(C(=O)N3CCc4c(sc(C(=O)Nc5c(F)cccc5F)c4F)-c4ncccc43)cc2)c(N2CC3(CCOCC3)C2)n1 [Example 81]
7.30 to 8.00	Cc1cnc(N2CC3(CCOCC3)C2)c(C(=O)Nc2ccc(C(=O)N3CCc4cc(-c5nc6ccccc6[nH]5)oc4-c4ncccc43)cc2)c1 [Example 118]
> 8.00	Cc1ccc(C(=O)Nc2ccc(C(=O)N3CCc4c(sc(C(=O)Nc5c(F)cccc5Cl)c4F)-c4ncccc43)cc2)c(N2CC3(CCOCC3)C2)n1 [Example 86]
> 8.00	Cc1cnc(N2CC3(CCOCC3)C2)c(C(=O)Nc2ccc(C(=O)N3CCc4cc(C(=O)Nc5c(F)cccc5Cl)oc4-c4ncc(F)cc43)cc2)c1 [Example 101]
> 8.00	Cc1cnc(N2CC3(CCOCC3)C2)c(C(=O)Nc2ccc(C(=O)N3CCc4cc(C(=O)Nc5ccccn5)sc4-c4ncccc43)cc2)c1 [Example 19]
> 8.00	Cc1cnc(N2CC3(CCOCC3)C2)c(C(=O)Nc2ccc(C(=O)N3CCc4cc(C(=O)Nc5ncccc5C)sc4-c4ncccc43)cc2)c1 [Example 22]
7.30 to 8.00	O=C(Nc1ccc(C(=O)N2CCc3cc(-c4nc5ccccc5[nH]4)sc3-c3ncc(F)cc32)cc1)c1cccnc1N1CC2(CCOCC2)C1 [Example 54]
> 8.00	Cc1cnc(N2CC3(CCOCC3)C2)c(C(=O)Nc2ccc(C(=O)N3CCc4cc(-c5nc6cccc(Cl)c6[nH]5)sc4-c4ncc(F)cc43)cc2)c1 [Example 63]
> 8.00	Cc1cnc(N2CC3(CCOCC3)C2)c(C(=O)Nc2ccc(C(=O)N3CCc4cc(C(=O)NCC5CCCO5)sc4-c4ncccc43)cc2)c1 (centres unmarked) [Example 29]
7.30 to 8.00	Cc1cnc(N2CC3(CCOCC3)C2)c(C(=O)Nc2ccc(C(=O)N3CCc4c(sc(C(=O)Nc5c(F)cccc5C(F)(F)F)c4F)-c4ncccc43)cc2)c1 [Example 77]
< 7.30	Cc1cnc(N2CC3(CCOCC3)C2)c(C(=O)Nc2ccc(C(=O)N3CCc4cc(-c5nc6ccccc6[nH]5)oc4-c4cccnc43)cc2)c1 [Example 114]
7.30 to 8.00	Cc1cnc(N2CC3(CCOCC3)C2)c(C(=O)Nc2ccc(C(=O)N3CCc4cc(C(=O)Nc5c(F)cccc5Cl)oc4-c4ccncc43)cc2)c1 [Example 125]
< 7.30	Cc1ccc2c(n1)-c1sc(C(=O)Nc3c(C)cccc3F)cc1CCN2C(=O)c1ccc(NC(=O)c2ccc(C)nc2N2CC3(CCOCC3)C2)cc1 [Example 145]
7.30 to 8.00	Cc1cnc(N2CC3(CCOCC3)C2)c(C(=O)Nc2ccc(C(=O)N3CCc4cc(-c5ccc[nH]c5=O)sc4-c4ncc(F)cc43)cc2)c1 [Example 110]
< 7.30	Cc1cnc(N2CC3(CCOCC3)C2)c(C(=O)Nc2ccc(C(=O)N3CCc4cc(C(=O)Nc5c(C)cccc5F)oc4-c4cccnc43)cc2)c1 [Example 112]
> 8.00	Cc1cnc(N2CC3(CCOCC3)C2)c(C(=O)Nc2ccc(C(=O)N3CCc4cc(C(=O)Nc5c(F)cccc5F)sc4-c4ncc(C)cc43)cc2)c1 [Example 133]
7.30 to 8.00	Cc1cnc(N2CC3(CCOCC3)C2)c(C(=O)Nc2ccc(C(=O)N3CCc4cc(-c5nc6cccc(F)c6[nH]5)sc4-c4cc(C)sc43)cc2)c1 [Example 131]
> 8.00	Cc1cnc(N2CC3(CCOCC3)C2)c(C(=O)Nc2ccc(C(=O)N3CCc4cc(C(=O)Nc5c(F)cc(F)cc5F)sc4-c4ncccc43)cc2)c1 [Example 10]
> 8.00	Cc1cnc(N2CC3(CCOCC3)C2)c(C(=O)Nc2ccc(C(=O)N3CCc4cc(-c5nc6cccc(F)c6[nH]5)sc4-c4ncc(F)cc43)cc2)c1 [Example 64]
< 7.30	Cc1cnc(N2CC3(CCOCC3)C2)c(C(=O)Nc2ccc(C(=O)N3CCc4cc(-c5nc6ccccc6[nH]5)oc4-c4ccncc43)cc2)c1 [Example 124]

pEC50	SMILES
> 8.00	Cc1cnc(N2CC3(CCOCC3)C2)c(C(=O)Nc2ccc(C(=O)N3CCc4c(sc(-c5nc6ccc(F)cc6[nH]5)c4F)-c4ncccc43)cc2)c1 [Example 79]
> 8.00	Cc1cnc(N2CC3(CCOCC3)C2)c(C(=O)Nc2ccc(C(=O)N3CCc4c(sc(-c5nc6ccccc6[nH]5)c4F)-c4ncccc43)cc2)c1 [Example 71]
7.30 to 8.00	Cc1cnc(N2CCC3(CC2)COC3)c(C(=O)Nc2ccc(C(=O)N3CCc4cc(C(=O)Nc5ccccc5)sc4-c4ncccc43)cc2)c1 [Example 90]
< 7.30	O=C(Nc1ccc(C(=O)N2CCc3cc(-c4nc5ccccc5[nH]4)sc3-c3cnccc32)cc1)c1cccnc1N1CC2(CCOCC2)C1 [Example 53]
> 8.00	Cc1cnc(N2CC3(CCOCC3)C2)c(C(=O)Nc2ccc(C(=O)N3CCc4c(sc(C(=O)Nc5c(F)cccc5Cl)c4F)-c4ncccc43)cc2)c1 [Example 76]
> 8.00	Cc1ccc(C(=O)Nc2ccc(C(=O)N3CCc4c(sc(C(=O)Nc5c(F)cccc5C(F)(F)F)c4F)-c4ncccc43)cc2)c(N2CC3(CCOCC3)C2)n1 [Example 87]
> 8.00	O=C(Nc1c(F)cc(F)cc1F)c1cc2c(s1)-c1ncc(F)cc1N(C(=O)c1ccc(NC(=O)c3cccnc3N3CC4(CCOCC4)C3)cc1)CC2 [Example 56]
> 8.00	Cc1cnc(N2CC3(CCOCC3)C2)c(C(=O)Nc2ccc(C(=O)N3CCc4cc(NC(=O)c5ccccc5F)sc4-c4ncccc43)cc2)c1 [Example 156]
7.30 to 8.00	Cc1cnc(N2CC3(CCOCC3)C2)c(C(=O)Nc2ccc(C(=O)N3CCc4cc(C(=O)Nc5c(F)cccc5F)oc4-c4cccnc43)cc2)c1 [Example 111]
> 8.00	Cc1cnc(N2CC3(CCOCC3)C2)c(C(=O)Nc2ccc(C(=O)N3CCc4cc(C(=O)Nc5cnccc5C)sc4-c4ncccc43)cc2)c1 [Example 33]
7.30 to 8.00	O=C(Nc1c(F)cccc1F)c1cc2c(s1)-c1cnccc1N(C(=O)c1ccc(NC(=O)c3cccnc3N3CC4(CCOCC4)C3)cc1)CC2 [Example 51]
7.30 to 8.00	Cc1cnc(N2CC3(CCOCC3)C2)c(C(=O)Nc2ccc(C(=O)N3CCc4cc(C(=O)Nc5c(C)cccc5F)sc4-c4nc(C)ccc43)cc2)c1 [Example 139]
7.30 to 8.00	Cc1ccc(C(=O)Nc2ccc(C(=O)N3CCc4cc(NC(=O)c5c(C)cccc5F)sc4-c4ncccc43)cc2)c(N2CC3(CCOCC3)C2)n1 [Example 158]
> 8.00	Cc1ccc(C(=O)Nc2ccc(C(=O)N3CCc4cc(NC(=O)c5ccccc5F)sc4-c4ncccc43)cc2)c(N2CC3(CCOCC3)C2)n1 [Example 160]
< 7.30	O=C(Nc1c(F)cccc1F)c1cc2c(s1)-c1ccncc1N(C(=O)c1ccc(NC(=O)c3cccnc3N3CC4(CCOCC4)C3)cc1)CC2 [Example 1]
> 8.00	Cc1ccc(C(=O)Nc2ccc(C(=O)N3CCc4cc(C(=O)Nc5c(F)cccc5F)sc4-c4ncccc43)cc2)c(N2CC3(CCOCC3)C2)n1 [Example 39]
> 8.00	Cc1cnc(N2CC3(CCOCC3)C2)c(C(=O)Nc2ccc(C(=O)N3CCc4c(sc(C(=O)Nc5c(F)cccc5F)c4F)-c4ncccc43)cc2)c1 [Example 70, N-(2,6-difluorophenyl)-8-fluoro-5-(4-(5-methyl-2-(7-oxa-2-azaspiro[3.5]nonan-2-yl)nicotinamido)benzoyl)-6,7-dihydro-5H-pyrido[3,2-b]thieno[2,3-d]azepine-9-carboxamide]
7.30 to 8.00	Cc1cnc(N2CC3(CCOCC3)C2)c(C(=O)Nc2ccc(C(=O)N3CCc4cc(C(=O)Nc5c(F)cccc5F)sc4-c4ncccc43)cc2F)c1 [Example 47]
> 8.00	Cc1cccc(F)c1NC(=O)c1cc2c(s1)-c1ncc(F)cc1N(C(=O)c1ccc(NC(=O)c3cccnc3N3CC4(CCOCC4)C3)cc1)CC2 [Example 61]
> 8.00	O=C(Nc1c(Cl)cccc1Cl)c1cc2c(o1)-c1ncc(F)cc1N(C(=O)c1ccc(NC(=O)c3cc4c(nc3N3CC5(CCOCC5)C3)CCC4)cc1)CC2 [Example 105]
> 8.00	Cc1ccc(C(=O)Nc2ccc(C(=O)N3CCc4cc(-c5nc6cccc(F)c6[nH]5)sc4-c4ncccc43)cc2)c(N2CC3(CCOCC3)C2)n1 [Example 46]
> 8.00	Cc1cnc(N2CC3(CCOCC3)C2)c(C(=O)Nc2ccc(C(=O)N3CCc4c(sc(-c5nc6cccc(F)c6[nH]5)c4F)-c4ncccc43)cc2)c1 [Example 78]
